Measured values taken from US8236792B2, “Substituted pyrrolidine amides as modulators of the histamine H3 receptor” (Janssen Pharmaceutica NV, priority 2008, dated 2012).

Columns and labels:
human H3 receptor = human H3 receptor (Homo sapiens, UniProt Q9Y5N1); assay: H3 Receptor Binding (Human) Method 2, [125I]-iodoproxyfan competitive radioligand binding; design: expressed in transfected cells; conditions: read-out: Human H3 Ki
Protocol: SK-N-MC cells expressing the human H3 receptor were grown to confluence and tissue culture plates, washed with phosphate-buffered saline, and scraped into 50 mL tubes. After centrifugation, the supernatant was aspirated, and the pellets frozen and stored at −80° C. […] The homogenate was centrifuged at 25000×g for 25 min. […] Reactions were stopped by filtration through GF/B filter plates pre-soaked in 0.3% polyethylenimine and subsequently washed with Tris 50 mM, 5 mM EDTA buffer. Plates were dried for 1 h in a 55° C. oven. Scintillation fluid was added and the radioactivity was counted in a Packard TopCount. Non-specific binding to the H3 receptor was defined by radioactivity that was bound in the presence of 100 μM histamine.
(§1) Compounds were tested in their free base or hydrochloride salt forms.

[1] = target: T1, cloned human H3 receptors (Homo sapiens, UniProt Q9Y5N1); assay: H3 Receptor Binding (Human) Method 1; conditions: receptor stably expressed in SK-N-MC cells, free base forms, average of results
T1 construct: expressed in transfected cells

cloned rat H3 receptors = target: T2, cloned rat H3 receptors (Rattus norvegicus, UniProt Q9QYN8); assay: H3 Receptor Binding (Rat); conditions: receptor stably expressed in SK-N-MC cells; free base or hydrochloride salt; average of results; read-out: Rat H3 Ki
T2 construct: expressed in transfected cells
T2 sequence (Q9QYN8 whole entry): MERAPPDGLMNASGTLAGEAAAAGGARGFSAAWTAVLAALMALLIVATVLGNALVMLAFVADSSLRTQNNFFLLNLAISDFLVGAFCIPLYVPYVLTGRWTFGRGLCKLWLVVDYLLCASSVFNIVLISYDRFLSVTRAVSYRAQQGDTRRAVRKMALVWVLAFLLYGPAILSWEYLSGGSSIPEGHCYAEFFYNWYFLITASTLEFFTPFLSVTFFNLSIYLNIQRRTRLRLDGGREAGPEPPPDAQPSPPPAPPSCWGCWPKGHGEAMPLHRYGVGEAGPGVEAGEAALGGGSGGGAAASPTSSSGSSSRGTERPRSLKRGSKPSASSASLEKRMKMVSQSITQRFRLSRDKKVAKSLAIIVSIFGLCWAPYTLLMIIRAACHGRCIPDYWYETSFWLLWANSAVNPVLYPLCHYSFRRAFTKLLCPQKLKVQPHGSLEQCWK
Protocol: Compounds were tested for binding to cloned rat H3 receptors, stably expressed in SK-N-MC cells.
as §1

T1 sequence (Q9Y5N1 whole entry): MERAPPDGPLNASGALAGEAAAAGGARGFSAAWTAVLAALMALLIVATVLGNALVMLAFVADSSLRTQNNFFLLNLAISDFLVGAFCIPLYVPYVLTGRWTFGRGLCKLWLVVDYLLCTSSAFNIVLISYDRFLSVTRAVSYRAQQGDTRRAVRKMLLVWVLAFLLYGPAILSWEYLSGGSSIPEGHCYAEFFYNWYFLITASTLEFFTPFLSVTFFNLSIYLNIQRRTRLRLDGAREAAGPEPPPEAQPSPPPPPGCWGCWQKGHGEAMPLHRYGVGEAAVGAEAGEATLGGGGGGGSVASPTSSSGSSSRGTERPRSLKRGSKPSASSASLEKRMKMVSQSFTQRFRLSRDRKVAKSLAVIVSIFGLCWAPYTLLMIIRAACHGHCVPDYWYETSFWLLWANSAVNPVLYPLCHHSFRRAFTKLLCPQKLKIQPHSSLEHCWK
Sequence of human H3 receptor (Q9Y5N1 whole entry): as above

Row | SMILES | Ki (human H3 receptor) [nM] | Ki [1] [nM] | Ki (cloned rat H3 receptors) [nM]
1 | CC(C)(C)OC(=O)N1C[C@@H](Oc2ccc(C#N)cc2)C[C@@H]1C(=O)N1CCCN(C2CCC2)CC1 [Example 16, (2R,4S)-4-(4-Cyano-phenoxy)-2-(4-cyclobutyl-[1,4]diazepane-1-carbonyl)-pyrrolidine-1-carboxylic acid tert-butyl ester] | 2 | 3 | 
2 | CC(C)(C)OC(=O)N1C[C@@H](Oc2cccc(F)c2)C[C@@H]1C(=O)N1CCCN(C2CCC2)CC1 [Example 17, (2R,4S)-2-(4-Cyclobutyl-[1,4]diazepane-1-carbonyl)-4-(3-fluoro-phenoxy)-pyrrolidine-1-carboxylic acid tert-butyl ester] | 3 | 3 | 
3 | CC(C)(C)OC(=O)N1C[C@@H](Oc2ccccc2)C[C@@H]1C(=O)N1CCCN(C2CCC2)CC1 [Example 19, (2R,4S)-2-(4-Cyclobutyl-[1,4]diazepane-1-carbonyl)-4-phenoxy-pyrrolidine-1-carboxylic acid tert-butyl ester] | 9 | 5 | 
4 | CC(C)(C)OC(=O)N1C[C@@H](Oc2cccc(Cl)c2)C[C@@H]1C(=O)N1CCCN(C2CCC2)CC1 [Example 20, (2R,4S)-4-(3-Chloro-phenoxy)-2-(4-cyclobutyl-[1,4]diazepane-1-carbonyl)-pyrrolidine-1-carboxylic acid tert-butyl ester] | 4 | 12 | 
5 | CC(C)(C)OC(=O)N1C[C@@H](Oc2ccc(Cl)cc2)C[C@@H]1C(=O)N1CCCN(C2CCC2)CC1 [Example 21, (2R,4S)-4-(4-Chloro-phenoxy)-2-(4-cyclobutyl-[1,4]diazepane-1-carbonyl)-pyrrolidine-1-carboxylic acid tert-butyl ester] | 3 | 12 | 
6 | CC(C)(C)OC(=O)N1C[C@@H](Oc2cccc(C#N)c2)C[C@@H]1C(=O)N1CCCN(C2CCC2)CC1 [Example 22, (2R,4S)-4-(3-Cyano-phenoxy)-2-(4-cyclobutyl-[1,4]diazepane-1-carbonyl)-pyrrolidine-1-carboxylic acid tert-butyl ester] |  | 3 | 
7 | Cc1cccc(O[C@H]2C[C@H](C(=O)N3CCCN(C4CCC4)CC3)N(C(=O)OC(C)(C)C)C2)c1 [Example 27, (2R,4S)-2-(4-Cyclobutyl-[1,4]diazepane-1-carbonyl)-4-m-tolyloxy-pyrrolidine-1-carboxylic acid tert-butyl ester] | 5 |  | 232
8 | CC(C)(C)OC(=O)N1CC(Oc2cccc(Cl)c2)C[C@H]1C(=O)N1CCCN(C2CCC2)CC1 (stereo partly drawn) [Example 42, (2S)-4-(3-Chloro-phenoxy)-2-(4-cyclobutyl-[1,4]diazepane-1-carbonyl)-pyrrolidine-1-carboxylic acid tert-butyl ester] |  | 24 | 
9 | CC(C)(C)OC(=O)N1CC(Oc2ccc(Cl)cc2)C[C@H]1C(=O)N1CCCN(C2CCC2)CC1 (stereo partly drawn) [Example 43, (2S)-4-(4-Chloro-phenoxy)-2-(4-cyclobutyl-[1,4]diazepane-1-carbonyl)-pyrrolidine-1-carboxylic acid tert-butyl ester] |  | 33 | 
10 | CC(C)(C)OC(=O)N1CC(Oc2ccc(Cl)c(Cl)c2)C[C@H]1C(=O)N1CCCN(C2CCC2)CC1 (stereo partly drawn) [Example 44, (2S)-2-(4-Cyclobutyl-[1,4]diazepane-1-carbonyl)-4-(3,4-dichloro-phenoxy)-pyrrolidine-1-carboxylic acid tert-butyl ester] |  | 52 | 
11 | CC(C)(C)OC(=O)N1CC(Oc2ccc(C#N)cc2)C[C@H]1C(=O)N1CCCN(C2CCC2)CC1 (stereo partly drawn) [Example 45, (2S)-4-(4-Cyano-phenoxy)-2-(4-cyclobutyl-[1,4]diazepane-1-carbonyl)-pyrrolidine-1-carboxylic acid tert-butyl ester] |  | 8 | 
12 | CSc1ccc(OC2C[C@@H](C(=O)N3CCCN(C4CCC4)CC3)N(C(=O)OC(C)(C)C)C2)cc1 (stereo partly drawn) [Example 46, (2S)-2-(4-Cyclobutyl-[1,4]diazepane-1-carbonyl)-4-(4-methylsulfanyl-phenoxy)-pyrrolidine-1-carboxylic acid tert-butyl ester] |  | 35 | 
13 | CC(C)(C)OC(=O)N1CC(Oc2ccccc2)C[C@H]1C(=O)N1CCCN(C2CCC2)CC1 (stereo partly drawn) [Example 47, (2S)-2-(4-Cyclobutyl-[1,4]diazepane-1-carbonyl)-4-phenoxy-pyrrolidine-1-carboxylic acid tert-butyl ester] |  | 50 | 
14 | CC(C)O[C@@H]1C[C@@H](C(=O)N2CCCN(C3CCC3)CC2)N(C(=O)OC(C)(C)C)C1 [Example 59, (2S,4R)-2-(4-Cyclobutyl-[1,4]diazepane-1-carbonyl)-4-isopropoxy-pyrrolidine-1-carboxylic acid tert-butyl ester] |  | 16 | 
15 | O=C([C@@H]1C[C@H](Oc2ccc(F)cc2)CN1)N1CCN(C2CCC2)CC1 [Example 63, (2S,4S)-2-(4-Cyclobutyl-piperazine-1-carbonyl)-4-(4-fluoro-phenoxy)-pyrrolidine] |  | 284 | 
16 | O=C([C@@H]1C[C@@H](Oc2cccc(Cl)c2)CN1)N1CCCN(C2CCC2)CC1 [Example 88, (2S,4R)-4-(3-Chloro-phenoxy)-2-(4-cyclobutyl-[1,4]diazepane-1-carbonyl)-pyrrolidine] |  |  | 130

Row | SMILES | Ki (human H3 receptor) [nM] | Ki [1] [nM] | Ki (cloned rat H3 receptors) [nM]
17 | O=C([C@@H]1C[C@@H](Oc2ccc(Cl)c(Cl)c2)CN1)N1CCCN(C2CCC2)CC1 [Example 92, (2S,4R)-2-(4-Cyclobutyl-[1,4]diazepane-1-carbonyl)-4-(3,4-dichloro-phenoxy)-pyrrolidine] |  | 51 | 
18 | O=C([C@@H]1C[C@H](Oc2ccc(Cl)c(Cl)c2)CN1)N1CCCN(C2CCC2)CC1 [Example 93, (2S,4S)-2-(4-Cyclobutyl-[1,4]diazepane-1-carbonyl)-4-(3,4-dichloro-phenoxy)-pyrrolidine] |  | 88 | 
19 | CSc1ccc(O[C@@H]2CN[C@H](C(=O)N3CCCN(C4CCC4)CC3)C2)cc1 [Example 97, (2S,4S)-2-(4-Cyclobutyl-[1,4]diazepane-1-carbonyl)-4-(4-methylsulfanyl-phenoxy)-pyrrolidine] |  | 89 | 
20 | CN1C[C@@H](Oc2ccc(F)cc2)C[C@H]1C(=O)N1CCN(C2CCC2)CC1 [Example 107, (2S,4S)-1-Methyl-2-(4-cyclobutyl-piperazine-1-carbonyl)-4-(4-fluoro-phenoxy)-pyrrolidine] |  | 523 | 
21 | CCC(=O)N1C[C@@H](Oc2ccc(F)cc2)C[C@H]1C(=O)N1CCCN(C2CCC2)CC1 [Example 116, (2S,4S)-1-[2-(4-Cyclobutyl-[1,4]diazepane-1-carbonyl)-4-(4-fluoro-phenoxy)-pyrrolidin-1-yl]-propan-1-one] |  | 152 | 
22 | CC(C)C(=O)N1C[C@@H](Oc2ccc(F)cc2)C[C@H]1C(=O)N1CCCN(C2CCC2)CC1 [Example 117, (2S,4S)-1-[2-(4-Cyclobutyl-[1,4]diazepane-1-carbonyl)-4-(4-fluoro-phenoxy)pyrrolidin-1-yl]-2-methyl-propan-1-one] |  | 796 | 
23 | CC(C)(C)CC(=O)N1C[C@@H](Oc2ccc(F)cc2)C[C@H]1C(=O)N1CCCN(C2CCC2)CC1 [Example 118, (2S,4S)-1-[2-(4-Cyclobutyl-[1,4]diazepane-1-carbonyl)-4-(4-fluoro-phenoxy)-pyrrolidin-1-yl]-3,3-dimethyl-butan-1-one] |  | 816 | 
24 | CC(=O)N1C[C@@H](Oc2ccc(F)cc2)C[C@H]1C(=O)N1CCN(C2CCC2)CC1 [Example 119, (2S,4S)-1-[2-(4-Cyclobutyl-piperazine-1-carbonyl)-4-(4-fluoro-phenoxy)-pyrrolidin-1-yl]-ethanone] |  | 300 | 
25 | CSc1ccc(O[C@H]2C[C@H](C(=O)N3CCCN(C4CCC4)CC3)N(C(C)=O)C2)cc1 [Example 121, (2R,4S)-1-[2-(4-Cyclobutyl-[1,4]diazepane-1-carbonyl)-4-(4-methylsulfanyl-phenoxy)-pyrrolidin-1-yl]-ethanone] | 2 |  | 15
26 | CC(=O)N1C[C@@H](Oc2ccc(Cl)c(C)c2)C[C@@H]1C(=O)N1CCCN(C2CCC2)CC1 [Example 122, (2R,4S)-1-[4-(4-Chloro-3-methyl-phenoxy)-2-(4-cyclobutyl-[1,4]diazepane-1-carbonyl)-pyrrolidin-1-yl]-ethanone] | 1 |  | 12
27 | CS(=O)(=O)N1C[C@@H](Oc2ccc(F)cc2)C[C@H]1C(=O)N1CCCN(C2CCC2)CC1 [Example 137, (2S,4S)-1-Methanesulfonyl-2-(4-cyclobutyl-[1,4]diazepane-1-carbonyl)-4-(4-fluoro-phenoxy)-pyrrolidine] |  | 206 | 
28 | CS(=O)(=O)N1C[C@@H](Oc2ccc(F)cc2)C[C@H]1C(=O)N1CCN(C2CCC2)CC1 [Example 138, (2S,4S)-2-(4-Cyclobutyl-piperazin-1-yl)-[4-(4-fluoro-phenoxy)-1-methanesulfonyl-pyrrolidin-2-yl]-methanone] |  | > 10000 | 
29 | CC(C)(C)OC(=O)N1C[C@H](OCc2cccc(F)c2)C[C@@H]1C(=O)N1CCCN(C2CCC2)CC1 [Example 150, (2R,4R)-2-(4-Cyclobutyl-[1,4]diazepane-1-carbonyl)-4-(3-fluoro-benzyloxy)-pyrrolidine-1-carboxylic acid tert-butyl ester] |  | 77 | 
30 | CC(C)(C)OC(=O)N1C[C@H](OCc2ccc(F)cc2)C[C@@H]1C(=O)N1CCCN(C2CCC2)CC1 [Example 151, (2R,4R)-2-(4-Cyclobutyl-[1,4]diazepane-1-carbonyl)-4-(4-fluoro-benzyloxy)-pyrrolidine-1-carboxylic acid tert-butyl ester] |  | 34 | 
31 | O=C([C@H]1C[C@@H](OCc2cccc(F)c2)CN1)N1CCCN(C2CCC2)CC1 [Example 154, (2R,4R)-2-(4-Cyclobutyl-[1,4]diazepane-1-carbonyl)-4-(3-fluoro-benzyloxy)-pyrrolidine] |  | 149 | 
32 | O=C([C@H]1C[C@@H](OCc2ccc(F)cc2)CN1)N1CCCN(C2CCC2)CC1 [Example 155, (2R,4R)-2-(4-Cyclobutyl-[1,4]diazepane-1-carbonyl)-4-(4-fluoro-benzyloxy)-pyrrolidine] |  | 160 | 
